Laboratory results taken from paper PMC10313368 (The Journal of Clinical Investigation, 2023).

What was measured:
[1] = test system: differentially expressed genes (DEGs) in OIR mice; test: Bulk RNA-Seq of neurosensory retina of OIR mice; type: in vivo, mouse
Excerpt: Bulk RNAseq. P17 mouse pups from non-OIR (control), OIR injected with DMSO (vehicle) at P12 […]
enucleated, and their retinas separated from the RPE/choroid. Total RNA was isolated using miRNeasy mini kit (QIAGEN). RNA was quantified using Nanodrop (ND-1000 spectrophotometer; Thermo Scientific). The RNA samples were sequenced by Novogene […]
Raw data (fastq files), data quality control, and genome alignment were generated by Novogene company. DESeq2 (6) was used for differentially expressed genes (DEG) analysis. Genes with adjusted P < 0.05 and log2 fold change > 1 were identified as DEGs. Normalized counts were used to produce clustering heatmaps and “complete” was the default method in the clustering analysis.
Gene Ontology (GO) analysis (biological process) was done using DAVID Bioinformatics Resources (7, 8). FDR < 0.05 was used as the threshold for enriched biological process. […]

HIF-1α [2] = target: T1, HIF-1α (Mus musculus, UniProt Q61221); test: Western blot of HIF-1α in neurosensory retina of STZ-diabetic mice; type: in vivo; details: IP 32-134D 40 or 80 mg/kg; Supplementary Figure 3
T1 construct: from tissue; host or cells: retina of C57BL/6 OIR pups
T1 sequence (Q61221 whole entry): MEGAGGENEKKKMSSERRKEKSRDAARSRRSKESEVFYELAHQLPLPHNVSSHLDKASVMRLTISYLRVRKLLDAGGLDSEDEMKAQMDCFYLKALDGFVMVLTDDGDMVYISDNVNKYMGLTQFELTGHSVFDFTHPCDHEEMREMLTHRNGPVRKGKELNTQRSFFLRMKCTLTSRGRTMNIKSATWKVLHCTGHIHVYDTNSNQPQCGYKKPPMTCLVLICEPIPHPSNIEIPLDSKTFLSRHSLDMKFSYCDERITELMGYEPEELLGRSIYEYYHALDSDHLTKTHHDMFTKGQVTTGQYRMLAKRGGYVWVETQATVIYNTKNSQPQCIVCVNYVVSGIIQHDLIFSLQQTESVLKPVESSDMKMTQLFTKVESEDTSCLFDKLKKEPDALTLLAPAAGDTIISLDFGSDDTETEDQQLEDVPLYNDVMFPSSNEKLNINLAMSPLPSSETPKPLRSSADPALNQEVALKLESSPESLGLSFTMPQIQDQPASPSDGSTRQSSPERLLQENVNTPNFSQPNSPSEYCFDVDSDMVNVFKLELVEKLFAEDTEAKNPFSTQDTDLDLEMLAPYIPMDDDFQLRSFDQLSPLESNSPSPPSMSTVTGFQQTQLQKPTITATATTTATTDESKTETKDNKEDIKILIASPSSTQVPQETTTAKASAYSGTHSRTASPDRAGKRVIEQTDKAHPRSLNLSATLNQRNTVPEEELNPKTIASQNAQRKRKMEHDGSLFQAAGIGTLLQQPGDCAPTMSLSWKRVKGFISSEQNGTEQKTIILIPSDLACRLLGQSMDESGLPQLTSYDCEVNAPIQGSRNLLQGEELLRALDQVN
Experimental: Immunoblot assays. Cells, neurosensory retina, and D120 retinal organoid lysates were subjected to 4–15% gradient SDS/PAGE (Invitrogen). Immunoblot (Western blot or WB) assays were performed as previously described (1).
Reverse transcription and quantitative real-time PCR. Total RNA was isolated from cultured cells or retinas with PureLinkTM RNA Mini Kit (Invitrogen #12183025), and cDNA was prepared with MuLV Reverse Transcriptase (Applied Biosystems). Quantitative real-time PCR was performed with Power SYBR Green PCR Master Mix (Applied Biosystems) and MyiQ Real-Time PCR Detection System (Bio-Rad). Normalization was done using cyclophilin A for mouse tissue and human cell lines. Primers are listed in Supplemental Table 2.
Angiogenesis array. Total RNA was isolated from MIO-MI cells (8 hours) and HUVECs (16 […]
cDNA was prepared with QuantiTect® Reverse Transcription Kit (Qiagen, Cat# 205311). […]
STZ-induced diabetes mouse model. […] Blood glucose was measured on experimental day 28 after 16 hours fasting and mice with blood glucose level > 250 mg/dL were considered […]
the peritoneal cavity of neonatal C57BL/6 mice and STZ mice at indicated times, and the retinal vasculature and lysates for WB and qPCR were assessed at P17. […]

adult mice = details: i.p. 5 consecutive days, doses up to 80 mg/kg; cited from earlier work
HIF-1α [3] = target: T2, HIF-1α (Homo sapiens, UniProt Q16665); test: Immunoblot of HIF-1α accumulation in MIO-M1 cells cultured in hypoxia; type: cell-based; set-up: endogenous in cells; host or cells: MIO-M1
T2 sequence (Q16665 whole entry): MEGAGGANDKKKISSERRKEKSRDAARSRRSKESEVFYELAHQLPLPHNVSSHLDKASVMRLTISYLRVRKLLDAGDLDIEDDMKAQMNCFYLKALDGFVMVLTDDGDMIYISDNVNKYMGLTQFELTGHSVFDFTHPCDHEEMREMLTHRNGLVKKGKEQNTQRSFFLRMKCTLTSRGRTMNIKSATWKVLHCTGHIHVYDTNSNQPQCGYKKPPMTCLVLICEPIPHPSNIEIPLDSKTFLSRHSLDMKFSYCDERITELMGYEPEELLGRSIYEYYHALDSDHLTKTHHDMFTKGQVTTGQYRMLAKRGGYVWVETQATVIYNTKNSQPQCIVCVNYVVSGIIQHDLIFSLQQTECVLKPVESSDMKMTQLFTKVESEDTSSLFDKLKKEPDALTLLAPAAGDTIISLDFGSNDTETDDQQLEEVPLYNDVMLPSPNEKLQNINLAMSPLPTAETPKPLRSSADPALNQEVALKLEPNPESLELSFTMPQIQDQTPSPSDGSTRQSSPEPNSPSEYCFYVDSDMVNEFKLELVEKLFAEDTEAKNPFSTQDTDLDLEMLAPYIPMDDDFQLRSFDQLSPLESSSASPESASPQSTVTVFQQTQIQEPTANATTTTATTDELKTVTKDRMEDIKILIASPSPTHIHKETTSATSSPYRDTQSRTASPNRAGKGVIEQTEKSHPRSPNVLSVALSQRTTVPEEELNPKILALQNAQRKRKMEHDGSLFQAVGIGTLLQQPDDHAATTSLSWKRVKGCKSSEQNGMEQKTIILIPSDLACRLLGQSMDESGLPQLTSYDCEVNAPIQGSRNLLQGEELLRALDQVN
Experimental: MIO-M1, HUVECs, and ARPE19 cells were cultured in DMEM with 10% (vol/vol) FBS (Quality Biological) and 1% penicillin/streptomycin (Cellgro). A hypoxic chamber (Coy Laboratory Product Inc.; Two Glove Model) with 5% CO2, 94% N2, and 1% O2 gas concentration at 37°C was used to culture hypoxic cells. The control cells were cultured in an incubator maintained at 37°C, with 21% O2 and 5% CO2. […] Aflibercept was obtained from the Johns Hopkins University Pharmacy.
(§1) Immunoblot assays. Cells, neurosensory retina, and D120 retinal organoid lysates were subjected
(§2) to 4–15% gradient SDS/PAGE (Invitrogen). Immunoblot (Western blot or WB) assays were
(§3) performed as previously described (1). […]

HIF-1α [4] = target: T2, HIF-1α; test: Immunoblot of HIF-1α accumulation in D120 hiPSC-derived retinal organoids in 1% O2; type: cell-based; set-up: endogenous in cells; details: 1% O2 12 hours, 32-134D
Experimental: An hiPSC line derived from CD34^+ cord blood was used in this study (A18945, Thermo Fisher Scientific) ([70]). Undifferentiated hiPSCs and derived retinal organoids were routinely tested for mycoplasma contamination by PCR. Cell culture, retinal differentiation, and organoid formation were conducted as previously described ([71]). Retinal organoids at D120 were used for experiments.
as §1, §2, §3

[5] = OIR mice P17, single intraocular 32-134D 70 ng/μL at P12

**Q.** For `Brc1ccc2c(-c3csc(-c4c[nH]c5c(Br)cccc45)n3)c[nH]c2c1` [32-134D, 4-(6-bromo-1H-indol-3-yl)-2-(7-bromo-1H-indol-3-yl)thiazole], which “reduction in downregulated DEGs” value [1, 5] is on record?
**A.** The value was 93%.

**Q.** And the “reduction in upregulated DEGs” value [1, 5]?
**A.** Its value is 71%.

**Q.** And the “upregulated DEGs compared with non-OIR (control) mice” value ([1]; OIR mice P17, single intraocular 32-134D 70 ng/μL at P12, 250 in untreated OIR)?
**A.** The value was 73.

**Q.** And the “downregulated DEGs compared with non-OIR (control) mice” value ([1]; OIR mice P17, single intraocular 32-134D 70 ng/μL at P12, 768 in untreated OIR)?
**A.** Its value is 52.

**Q.** And the “top 37 upregulated DEGs of 4 biological functions (inflammation, angiogenesis, hypoxia, vasculogenesis)” value ([1]; OIR mice, 32-134D intraocular)?
**A.** The value was “normalization”.

**Q.** And the “HIF-1α expression in neurosensory retina of STZ mice” value (HIF-1α [2])?
**A.** The value was “inhibits HIF”.

**Q.** What about the “systemic tolerability (appearance, behavior, body weight, hemoglobin, hematocrit)” value (adult mice) of the same molecule?
**A.** The value was “well tolerated”.

**Q.** And the “HIF-1α protein accumulation in response to hypoxia” value (HIF-1α [3]; MIO-M1, 1 μM 32-134D, 1% O2 4 hours)?
**A.** The value was “decreased”.

**Q.** And the “persistence of effect on HIF-1α accumulation after treatment” value (HIF-1α [3]; MIO-M1, 10 μM, hypoxia 1 to 24 hours)?
**A.** Its value is “up to 16 hours”.

**Q.** What about the IC50 (HIF-1α [3]; MIO-M1 cells cultured in hypoxia, read-out: IC50, HIF-1α protein accumulation (quantitation of immunoblots)) of the same molecule?
**A.** Its IC50 is 3.5 µM.

**Q.** What about the “accumulation of HIF-1α protein” value (HIF-1α [4]) of the same molecule?
**A.** Its value is “effectively prevented accumulation”.
